Test results as given in patent US20160045505A1, “COMPOUNDS AND COMPOSITIONS FOR THE TREATMENT OF PARASITIC DISEASES” (NOVARTIS AG, priority 2013, published 2016).
Read-outs that look alike come from different tables or passages of the source.

What was measured:
[1] = test system: Leishmania donovani axenic amastigote parasites; assay: Leishmania donovani axenic amastigote proliferation assay (Cell TiterGlo luminescence, 2 day incubation); type: cell-based; conditions: Leishmania donovani, read-out: L. donovani amastigotes EC50
[2] = test system: L. donovani HU3 strain in mouse peritoneal macrophages; assay: Assay for proliferation of Leishmania parasites in infected mouse peritoneal macrophages (SybrGreen staining, high-content imaging, 5 days); type: cell-based, Leishmania donovani; conditions: Leishmania donovani, Peritoneal macrophage, L. donovani in mouse peritoneal macrophages, read-out: L. donovani Macrophage EC50
[3] = test system: Trypanosoma brucei Lister 427 strain, bloodstream form; assay: Assay for proliferation of kinetoplastid parasite Trypanosoma brucei (Cell Titer Glo, 48 hours); type: cell-based; conditions: Trypanosoma brucei
Method in brief: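 Bloodstream-form T. brucei Lister 427 in HMI-9 medium was exposed to compound (DMSO vehicle) for 48 hours at 37° C, 5% CO2. Parasite growth was read as ATP by CellTiter-Glo luminescence, with EC50 calculated from percent inhibition.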

[4] = test system: Trypanosoma cruzi amastigotes (Tulahuen strain expressing Lac-Z) cultured in 3T3 fibroblast cells; assay: microbe, parasite or virus in culture; type: cell-based; conditions: Trypanosoma cruzi, TULAHUEN, Fibroblast, T. cruzi amastigotes in 3T3 fibroblast cells, read-out: T cruzi EC50
[5] = axenic amastigotes, inhibition of proliferation
[6] = T. brucei Lister 427 bloodstream form, inhibition of proliferation, read-out: T. brucei EC50
[7] = T. brucei Lister 427 bloodstream form, read-out: T. brucei EC50

Row | Structure (SMILES) | EC50 [1, 5] | EC50 ([2]; inhibition of proliferation) | EC50 [3, 6] | EC50 ([4]; inhibition of proliferation) | EC50 ([1]; L. donovani axenic amastigotes) | EC50 [2] | EC50 [3, 7] | EC50 [4] | EC50 ([3]; read-out: T. brucei EC50 (μM))
1 | Cc1nc(C)c(C(=O)Nc2ccc(F)c(-c3cn4cc(-c5ccc(OCCN6CCOCC6)cc5)cnc4n3)c2)o1 [Compound 359] | 0.45 µM | 4.86 µM | 1.5 µM | 0.405 µM | – | – | – | – | –
2 | Cc1nc(C)c(C(=O)Nc2ccc(F)c(-c3cn4cc(-c5cn[nH]c5)cnc4n3)c2)o1 [Compound 386] | – | – | – | – | 1.5 µM | > 50 µM | 1.55 µM | > 20 µM | –
3 | CC(C)OC(=O)Nc1cnc2nc(-c3cc(NC(=O)N4CC[C@@H](F)C4)ccc3F)cn2c1 [Compound 229] | 0.884 µM | 2.82 µM | 0.776 µM | 11 µM | – | – | – | – | –
4 | O=C(Nc1ccc(Cl)c(-c2cn3cc(N4CCCC4)cnc3n2)c1)N1CCCC1 [Compound 495] | – | – | – | – | 0.235 µM | 0.233 µM | 0.036 µM | 0.055 µM | –
5 | Cc1nc(C)c(C(=O)Nc2ccc(F)c(-c3cn4cc(NC(=O)CC5CCCCO5)cnc4n3)c2)o1 (stereo not shown) [Compound 155] | 1.55 µM | 3.72 µM | 0.796 µM | 2.41 µM | – | – | – | – | –
6 | Cc1nc(C)c(C(=O)Nc2ccc(F)c(-c3cn4cc(NS(=O)(=O)C(C)C)cnc4n3)c2)o1 [Compound 315, N-(4-fluoro-3-(6-(1-methylethylsulfonamido)imidazo[1,2-a]pyrimidin-2-yl)phenyl)-2,4-dimethyloxazole-5-carboxamide] | 2.52 µM | 19.1 µM | 4.41 µM | > 19.8 µM | – | – | – | – | –
7 | Cc1nc(C)c(C(=O)Nc2ccc(F)c(-c3cn4cc(NC(=O)OC5CCCC5)cnc4n3)c2)o1 [Compound 306] | 0.315 µM | 0.835 µM | 0.36 µM | 0.673 µM | – | – | – | – | –
8 | C=Cc1cnc2nc(-c3cc(NC(=O)c4oc(C)nc4C)ccc3F)cn2c1 [Compound 581, N-(4-fluoro-3-(6-vinylimidazo[1,2-a]pyrimidin-2-yl)phenyl)-2,4-dimethyloxazole-5-carboxamide] | – | – | – | – | 0.169 µM | 0.249 µM | 0.101 µM | 0.11 µM | –
9 | Cc1nc(C)c(C(=O)N(c2ccc(F)c(-c3cn4cc(OC(C)C)cnc4n3)c2)C(C)C)o1 [Compound 612] | – | – | – | – | 9.4 µM | 1.06 µM | 12.4 µM | 3.81 µM | –
10 | CC(C)(C)OC(=O)N1CCOCC1C(=O)Nc1ccc(F)c(-c2cn3cc(C4CC4)cnc3n2)c1 (stereo not shown) [Compound 603] | – | – | – | – | 17.8 µM | 12.7 µM | 8.17 µM | 5.84 µM | –
11 | CN(C)c1cnc2nc(-c3cc(NC(=O)N4CCC4)ccc3F)cn2c1 [Compound 469] | – | – | – | – | 0.143 µM | 0.23 µM | 0.055 µM | 0.146 µM | –
12 | Cc1nc(C)c(C(=O)N(C)c2ccc(F)c(-c3cn4cc(N(C)C(=O)OC(C)C)cnc4n3)c2)o1 [Compound 553] | – | – | – | – | 3.48 µM | 3.61 µM | 4.29 µM | 3.11 µM | –
13 | CC(C)OC(=O)Nc1ccc(F)c(-c2cn3cc(-c4cccnc4)cnc3n2)c1 [Compound 399] | – | – | – | – | 0.274 µM | 0.646 µM | 0.103 µM | 0.08 µM | –
14 | CN(C)c1cnc2nc(-c3cc(NC(=O)N4CC(F)(F)C4)ccc3F)cn2c1 [Compound 466] | – | – | – | – | 0.158 µM | 0.207 µM | 0.044 µM | 0.183 µM | –
15 | CC(C)OC(=O)Nc1cnc2nc(-c3cc(NC(=O)N4CC[C@@H](O)C4)ccc3Cl)cn2c1 [Compound 286] | > 19.7 µM | > 50 µM | 29.7 µM | > 20 µM | – | – | – | – | –
16 | CC(C)OC(=O)Nc1cnc2nc(-c3cc(Nc4ccccn4)ccc3F)cn2c1 [Compound 484, isopropyl (2-(2-fluoro-5-(pyridin-2-ylamino)phenyl)imidazo[1,2-a]pyrimidin-6-yl)carbamate] | – | – | – | – | 1.48 µM | 9.11 µM | 1.36 µM | 0.361 µM | –
17 | CCN(C)C(=O)Nc1ccc(F)c(-c2cn3cc(C4=CCOCC4)cnc3n2)c1 [Compound 328] | 0.387 µM | 1.5 µM | 0.167 µM | 0.302 µM | – | – | – | – | –
18 | Cc1nc(C)c(C(=O)Nc2ccc(F)c(-c3cn4cc(NC(=O)c5nc(NC(=O)OC(C)(C)C)cn5C)cnc4n3)c2)o1 [Compound 176] | > 25 µM | > 50 µM | > 50 µM | > 20 µM | – | – | – | – | –
19 | Cc1nc(C)c(C(=O)Nc2ccc(F)c(-c3cn4cc(C#CCCN5CCN(C)CC5)cnc4n3)c2)o1 [Compound 546] | – | – | – | – | 5.66 µM | 30.2 µM | 3.18 µM | 3.85 µM | –
20 | Cc1nc(C)c(C(=O)Nc2ccc(F)c(-c3cn4cc(NC(=O)OCC(C)C)cnc4n3)c2)o1 [Compound 308] | 0.211 µM | 0.338 µM | 0.131 µM | 0.329 µM | – | – | – | – | –

Row | Structure (SMILES) | EC50 [1, 5] | EC50 ([2]; inhibition of proliferation) | EC50 [3, 6] | EC50 ([4]; inhibition of proliferation) | EC50 ([1]; L. donovani axenic amastigotes) | EC50 [2] | EC50 [3, 7] | EC50 [4] | EC50 ([3]; read-out: T. brucei EC50 (μM))
21 | O=C(Nc1ccc(F)c(-c2cn3cc(NC(=O)C4(O)CC4)cnc3n2)c1)N1CCCC1 [Compound 140] | 1.27 µM | 8.38 µM | 0.378 µM | > 17.6 µM | – | – | – | – | –
22 | CC(C)OC(=O)Nc1cnc2nc(-c3cc(NC(=O)[C@H](N)c4ccccc4)ccc3F)cn2c1 [Compound 85] | > 25 µM | 15.2 µM | 32.7 µM | 10.8 µM | – | – | – | – | –
23 | Cc1nc(C)c(C(=O)Nc2ccc(F)c(-c3cn4cc(NC(=O)C5CCOC(C(C)C)C5)cnc4n3)c2)o1 (stereo not shown) [Compound 120] | 0.3 µM | 0.975 µM | 0.419 µM | 0.767 µM | – | – | – | – | –
24 | O=C(Nc1ccc(F)c(-c2cn3cc(C4=CCCC4)cnc3n2)c1)N1CCCC1 [Compound 354] | 0.026 µM | 0.103 µM | 0.004 µM | 0.008 µM | – | – | – | – | –
25 | CC(C)OC(=O)Nc1cnc2nc(-c3cc(N4C(=O)c5ccccc5C4=O)ccc3Cl)cn2c1 [Compound 530, isopropyl (2-(2-chloro-5-(1,3-dioxoisoindolin-2-yl)phenyl)imidazo[1,2-a]pyrimidin-6-yl)carbamate] | – | – | – | – | > 13.1 µM | > 50 µM | – | > 20 µM | > 50 µM
26 | Cc1nc(C)c(C(=O)Nc2ccc(F)c(-c3cn4cc(NC(=O)OCCF)cnc4n3)c2)o1 [Compound 307] | 0.249 µM | 0.428 µM | 0.356 µM | 2.54 µM | – | – | – | – | –
27 | Cc1nc(C)c(C(=O)Nc2ccc(F)c(-c3cn4cc(NC(=O)c5ccc(CN(C)C)cn5)cnc4n3)c2)o1 [Compound 195] | 5.64 µM | 5.33 µM | 0.463 µM | 2.04 µM | – | – | – | – | –
28 | CC(C)OC(=O)Nc1cnc2nc(-c3cc(NC(=O)c4ccc(Cl)o4)ccc3Cl)cn2c1 [Compound 44] | 0.121 µM | 0.193 µM | 0.039 µM | 0.047 µM | – | – | – | – | –
29 | Cc1ncoc1C(=O)Nc1ccc(Cl)c(-c2cn3cc(NC(=O)OC(C)C)cnc3n2)c1 [Compound 53] | 0.448 µM | 6.27 µM | 0.386 µM | 0.572 µM | – | – | – | – | –
30 | O=C(Nc1ccc(F)c(-c2cn3cc(F)cnc3n2)c1)N1CC(F)(F)C1 [Compound 233] | 0.29 µM | 2.05 µM | 0.326 µM | 0.754 µM | – | – | – | – | –
31 | Cc1nc(C)c(C(=O)Nc2ccc(F)c(-c3cn4cc(-c5ccc(CCN6CCOCC6)cc5)cnc4n3)c2)o1 [Compound 348] | 0.341 µM | 1.03 µM | 0.165 µM | 0.041 µM | – | – | – | – | –
32 | CO[C@@H]1CCN(C(=O)Nc2ccc(Cl)c(-c3cn4cc(NC(=O)OC(C)C)cnc4n3)c2)C1 [Compound 265] | 0.978 µM | 4.26 µM | 1.55 µM | 3.93 µM | – | – | – | – | –
33 | Cc1nc(C)c(C(=O)Nc2ccc(F)c(-c3cn4cc(NC(=O)[C@@H]5[C@H](N)[C@@H]6C=C[C@H]5C6)cnc4n3)c2)o1 [Compound 180] | > 25 µM | > 50 µM | 4.38 µM | > 20 µM | – | – | – | – | –
34 | Cc1nc(C)c(C(=O)Nc2ccc(F)c(-c3cn4cc(NC(=O)C5CCN(C(C)C)CC5)cnc4n3)c2)o1 [Compound 194] | > 25 µM | > 50 µM | 29.8 µM | > 20 µM | – | – | – | – | –
35 | CC(C)OC(=O)Nc1cnc2nc(-c3cc(NC(=O)c4cncs4)ccc3F)cn2c1 [Compound 90] | 0.894 µM | 7.58 µM | 0.61 µM | 1.46 µM | – | – | – | – | –
36 | Cc1nc(C)c(C(=O)Nc2ccc(F)c(-c3cn4cc(-c5cccc(C(N)=O)n5)cnc4n3)c2)o1 [Compound 433] | – | – | – | – | 1.81 µM | > 50 µM | 0.494 µM | > 20 µM | –
37 | CON(C)C(=O)Nc1ccc(Cl)c(-c2cn3cc(NC(=O)OC(C)C)cnc3n2)c1 [Compound 214] | 0.09 µM | 0.785 µM | 0.04 µM | 0.154 µM | – | – | – | – | –
38 | Cc1cc(C(=O)Nc2ccc(F)c(-c3cn4cc(NC(=O)OC(C)C)cnc4n3)c2)on1 [Compound 112] | 2.1 µM | 16.6 µM | 1.09 µM | 1.27 µM | – | – | – | – | –
39 | Cc1nc(C)c(C(=O)Nc2ccc(F)c(-c3cn4cc(C(F)F)cnc4n3)c2)o1 [Compound 208] | 0.134 µM | 0.445 µM | 0.108 µM | 0.1 µM | – | – | – | – | –
40 | Cc1cccnc1-c1cnc2nc(-c3cc(N)ccc3F)cn2c1 [Compound 594, 4-fluoro-3-(6-(3-methylpyridin-2-yl)imidazo[1,2-a]pyrimidin-2-yl)aniline] | – | – | – | – | > 25 µM | > 32.8 µM | > 50 µM | > 19.9 µM | –
